The target of this experiment is Carbonic anhydrase 6 (Homo sapiens, UniProt P23280). As to the kind of experiment: Enzyme Inhbition Assay. Particulars: pH 7.5; 20 °C.

As a reminder, the Ki is the dissociation constant of the complex between target and ligand, obtained from inhibition or displacement. A lower Ki goes with a stronger hold on the target.

Where “and” joins values, the source holds several entries; their conditions need not be identical. Equal entries are not always repeated.

Chain of Carbonic anhydrase 6 (P23280 whole entry): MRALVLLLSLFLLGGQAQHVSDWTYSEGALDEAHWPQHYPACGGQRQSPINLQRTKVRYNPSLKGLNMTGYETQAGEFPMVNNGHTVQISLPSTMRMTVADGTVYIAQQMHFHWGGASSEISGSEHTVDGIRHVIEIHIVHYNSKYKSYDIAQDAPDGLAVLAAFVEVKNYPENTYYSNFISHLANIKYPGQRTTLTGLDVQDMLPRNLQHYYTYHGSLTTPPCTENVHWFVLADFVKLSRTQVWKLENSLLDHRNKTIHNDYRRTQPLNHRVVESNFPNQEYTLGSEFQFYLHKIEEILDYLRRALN
Excerpt: Inhibition assay using carbonic anhydrases with an SX.18MV-R, a stopped-flow instrument from Applied Photophysics was used for assaying the CA catalyzed CO2 hydration activity.

As to `NS(=O)(=O)c1ccc(NC2OCC(O)C(O)C2O)cc1` (configuration not stated), the Ki was 3.5 nM and 5.1 nM and 0.56 nM.

Turning to `CC1OC(Nc2ccc(S(N)(=O)=O)cc2)C(O)C(O)C1O` (configuration not stated), the Ki was 3.4 nM and 13 nM.

The values above are taken from BindingDB's records for doi:10.1111/j.1747-0285.2009.00902.x (Institut Des BiomolÉCules Max Mousseron (Ibmm), 2009).
